# Measured values as given in US12583818B2 (DAEGU-GYEONGBUK MEDICAL INNOVATION FOUNDATION, priority 2020, dated 2026).
# Target: T1, Pin1 (Homo sapiens, UniProt Q13526)
# T1 construct: purchased Anaspec
# Experiment: Evaluation of Pin1 enzyme inhibitory activity (Sensolyte Green Pin1 assay kit)
# Assay type: biochemical
# Conditions: Table 2; read-out: concentration at which Pin1 inhibitory activity was exhibited
# Protocol: In order to evaluate the Pin1 enzyme inhibitory activity of the compound represented by formula 1 according to the present invention, the following experiment was performed, and the results are shown in Table 2 below.
# The enzyme activity of Pin1 protein was measured using a sensolyte Green Pin1 assay kit of Anaspec. The substrate was diluted in a buffer at a ratio of 1:100 to prepare a concentration of 1 μM, and the protein was diluted in a buffer at a ratio of 1:20 to prepare a concentration of 50 μg/ml. In addition, a developing solution was prepared by diluting thereof in a buffer at a ratio of 1:100.
# The compound prepared in each example was diluted with DMSO and prepared at a concentration of 100 μM, 10 μM, 1 μM or 0.1 μM using a buffer. After sequentially adding 10 μl of the compound prepared in each Example diluted to four concentrations according to the above method, 10 μl of Pin1 protein, and 30 μl of the developing solution to each well of a black 96-well plate, […]. Finally, 50 μl of the substrate was added to each well of the plate, and the enzyme reaction was carried out after shaking the plate for 10 seconds.
# Then, the plate was incubated for 2 hours at room temperature in an environment without light, and the fluorescence values at 490 nm/520 nm wavelength were measured using a device of Synergy Neo […]. The results are shown in Table 2 below by dividing the grades of A to D for each concentration (μM) at which the Pin1 enzyme activity is inhibited.
# T1 sequence (Q13526 whole entry): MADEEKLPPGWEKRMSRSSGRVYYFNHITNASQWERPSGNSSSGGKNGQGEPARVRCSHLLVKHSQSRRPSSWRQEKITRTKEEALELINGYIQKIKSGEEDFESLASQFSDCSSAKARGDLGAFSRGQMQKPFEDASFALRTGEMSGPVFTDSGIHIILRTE
row,IC50 [µM],SMILES
1,< 1,"O=S(=O)(NCCCc1c[nH]c2ccc(Cl)cc12)c1ccc(OCCCN2CCCCC2)cc1 [Example 87, N-(3-(5-chloro-1H-indol-3-yl)propyl)-4-(3-(piperidin-1-yl)propoxy)benzenesulfonamide]"
2,< 1,"O=S(=O)(NCCCc1c[nH]c2ccc(Cl)cc12)c1ccc(OCCCN2CCCCCC2)cc1 [Example 101, 4-(3-(azepan-1-yl)propoxy)-N-(3-(5-chloro-1H-indol-3-yl)propyl)benzenesulfonamide]"
3,< 1,"O=S(=O)(NCCCc1c[nH]c2ccc(Cl)cc12)c1ccc(OCCCN2CCCNCC2)cc1 [Example 102, 4-(3-(1,4-diazepan-1-yl)propoxy)-N-(3-(5-chloro-1H-indol-3-yl)propyl)benzenesulfonamide]"
4,< 1,"CC1CN(CCCOc2ccc(S(=O)(=O)NCCCc3c[nH]c4ccc(Cl)cc34)cc2)CCN1 (centres unmarked) [Example 107, N-(3-(5-chloro-1H-indole-3-yl)propyl)-4-(3-(3-methylpiperazine-1-yl)propoxy)benzenesulfonamide]"
5,< 1,"CN1CCN(CC2(COc3ccc(S(=O)(=O)NCCCc4c[nH]c5ccc(Cl)cc45)cc3)CC2)CC1 [Example 116, N-(3-(5-chloro-1H-indole-3-yl)propyl)-4-((1-((4-methylpiperazine-1-yl)methyl)cyclopropyl)methoxy)benzenesulfonamide]"

# Same assay, conditions: concentration at which the Pin1 enzyme activity is inhibited; 2 hours at room temperature, fluorescence 490 nm/520 nm; read-out: Pin 1 inhibition
row,IC50 [µM],SMILES
1,> 100,"CC(C)N1CCN(CCCOc2ccc(S(=O)(=O)NCCc3c[nH]c4ccccc34)cc2)CC1 [Example 51, N-(2-(1H-indol-3-yl)ethyl)-4-(3-(4-isopropylpiperazin-1-yl)propoxy)benzenesulfonamide]"
2,10 to 100,"CN1CCN(CCOc2ccc(S(=O)(=O)NCCCc3c[nH]c4ccccc34)cc2)CC1 [Example 52, N-(3-(1H-indol-3-yl)propyl)-4-(2-(4-methylpiperazin-1-yl)ethoxy)benzenesulfonamide]"
3,10 to 100,"CC(C)N1CCN(CCOc2ccc(S(=O)(=O)NCCCc3c[nH]c4ccccc34)cc2)CC1 [Example 53, N-(3-(1H-indol-3-yl)propyl)-4-(2-(4-isopropylpiperazin-1-yl)ethoxy)benzenesulfonamide]"
4,10 to 100,"Cc1[nH]c2ccccc2c1CCNS(=O)(=O)c1ccc(OCCCN2CCN(C)CC2)cc1 [Example 54, N-(2-(2-methyl-1H-indol-3-yl)ethyl)-4-(3-(4-methylpiperazin-1-yl)propoxy)benzenesulfonamide]"
5,1 to 10,"CN1CCN(CCCOc2ccc(S(=O)(=O)NCCCc3c[nH]c4ccccc34)cc2F)CC1 [Example 62, N-(3-(1H-indol-3-yl)propyl)-3-fluoro-4-(3-(4-methylpiperazin-1-yl)propoxy)benzenesulfonamide]"
6,1 to 10,"CCN1CCN(CCCOc2ccc(S(=O)(=O)NCCCc3c[nH]c4ccc(F)cc34)cc2)CC1 [Example 63, 4-(3-(4-ethylpiperazin-1-yl)propoxy)-N-(3-(5-fluoro-1H-indol-3-yl)propyl)benzenesulfonamide]"
7,10 to 100,"COc1ccc2[nH]cc(C3CCN(S(=O)(=O)c4ccc(OCCCN5CCN(C)CC5)cc4)CC3)c2c1 [Example 64, 5-methoxy-3-(1-((4-(3-(4-methylpiperazin-1-yl)propoxy)phenyl)sulfonyl)piperidin-4-yl)-1H-indole]"
8,10 to 100,"Cc1ccc2[nH]cc(C3CCN(S(=O)(=O)c4ccc(OCCCN5CCN(C)CC5)cc4)CC3)c2c1 [Example 65, 5-methyl-3-(1-((4-(3-(4-methylpiperazin-1-yl)propoxy)phenyl)sulfonyl)piperidin-4-yl)-1H-indole]"
9,1 to 10,"Cc1ccc2[nH]cc(CCCNS(=O)(=O)c3ccc(OCCCN4CCN(C)CC4)cc3)c2c1 [Example 67, N-(3-(5-methyl-1H-indol-3-yl)propyl)-4-(3-(4-methylpiperazin-1-yl)propoxy)benzenesulfonamide]"
10,1 to 10,"COc1ccc2[nH]cc(CCCNS(=O)(=O)c3ccc(OCCCN4CCN(C)CC4)cc3)c2c1 [Example 68, N-(3-(5-methoxy-1H-indol-3-yl)propyl)-4-(3-(4-methylpiperazin-1-yl)propoxy)benzenesulfonamide]"
11,1 to 10,"O=S(=O)(NCCCc1c[nH]c2ccccc12)c1ccc(OCCCN2CCC(O)CC2)cc1 [Example 69, N-(3-(1H-indol-3-yl)propyl)-4-(3-(4-hydroxypiperidin-1-yl)propoxy)benzenesulfonamide]"
12,10 to 100,"CN1CCN(CCCOc2ccc(S(=O)(=O)N3CCC(c4c[nH]c5ccc(F)cc45)CC3)cc2)CC1 [Example 71, 5-fluoro-3-(1-((4-(3-(4-methylpiperazin-1-yl)propoxy)phenyl)sulfonyl)piperidin-4-yl)-1H-indole]"
13,10 to 100,"C[C@@H]1CN(CCCOc2ccc(S(=O)(=O)NCCCc3c[nH]c4ccc(F)cc34)cc2)C[C@H](C)N1 [Example 72, 4-(3-((3S,5R)-3,5-dimethylpiperazine-1-yl)propoxy)-N-(3-(5-fluoro-1H-indole-3-yl)propyl)benzenesulfonamide]"
14,10 to 100,"CC(C)C(=O)N1CCN(CCCOc2ccc(S(=O)(=O)NCCCc3c[nH]c4ccc(F)cc34)cc2)CC1 [Example 73, N-(3-(5-fluoro-1H-indol-3-yl)propyl)-4-(3-(4-isobutyrylpiperazin-1-yl)propoxy)benzenesulfonamide]"
15,1 to 10,"O=S(=O)(NCCCc1c[nH]c2ccc(F)cc12)c1ccc(OCCCN2CCN(CC(F)(F)F)CC2)cc1 [Example 74, N-(3-(5-fluoro-1H-indol-3-yl)propyl)-4-(3-(4-(2,2,2-trifluoroethyl)piperazin-1-yl)propoxy)benzenesulfonamide]"
16,1 to 10,"O=S(=O)(NCCCc1c[nH]c2ccc(Cl)cc12)c1ccc(OCCCN2CCN(CC(F)(F)F)CC2)cc1 [Example 76, N-(3-(5-chloro-1H-indol-3-yl)propyl)-4-(3-(4-(2,2,2-trifluoroethyl)piperazin-1-yl)propoxy)benzenesulfonamide]"
17,1 to 10,"O=S(=O)(NCCCc1c[nH]c2ccc(F)cc12)c1ccc(OCCCN2CCCCC2)cc1 [Example 84, N-(3-(5-fluoro-1H-indol-3-yl)propyl)-4-(3-(piperidin-1-yl)propoxy)benzenesulfonamide]"

row,IC50 [µM],SMILES
1,10 to 100,"CN1CCN(CCCOc2ccc(S(=O)(=O)NC3CCCC(c4c[nH]c5ccccc45)C3)cc2)CC1 (centres unmarked) [Example 85, N-(3-(1H-indole-3-yl)cyclohexyl)-4-(3-(4-methylpiperazine-1-yl)propoxy)benzenesulfonamide]"
2,< 1,"O=S(=O)(NCCCc1c[nH]c2ccc(Cl)cc12)c1ccc(OCCCN2CCCCC2)cc1 [Example 87, N-(3-(5-chloro-1H-indol-3-yl)propyl)-4-(3-(piperidin-1-yl)propoxy)benzenesulfonamide]"
3,10 to 100,"CN1CCN(CCCOc2ccc(S(=O)(=O)Nc3cccc(-c4c[nH]c5ccccc45)c3)cc2)CC1 [Example 89, N-(3-(1H-indole-3-yl)phenyl)-4-(3-(4-methylpiperazine-1-yl)propoxy)benzenesulfonamide]"
4,1 to 10,"O=S(=O)(NCCCc1c[nH]c2ccc(Cl)cc12)c1cccc(OCCCC2CCNCC2)c1 [Example 94, N-(3-(5-chloro-1H-indol-3-yl)propyl)-3-(3-(piperidin-4-yl)propoxy)benzenesulfonamide]"
5,1 to 10,"O=S(=O)(NCCCc1c[nH]c2ccc(Cl)cc12)c1cccc(OCCCN2CCNCC2)c1 [Example 96, N-(3-(5-chloro-1H-indol-3-yl)propyl)-3-(3-(piperazin-1-yl)propoxy)benzenesulfonamide]"
6,1 to 10,"O=S(=O)(NCCCc1c[nH]c2ccc(F)cc12)c1ccc(OCCCC2CCNCC2)cc1 [Example 97, N-(3-(5-fluoro-1H-indol-3-yl)propyl)-4-(3-(piperidin-4-yl)propoxy)benzenesulfonamide]"
7,< 1,"O=S(=O)(NCCCc1c[nH]c2ccc(Cl)cc12)c1ccc(OCCCN2CCCCCC2)cc1 [Example 101, 4-(3-(azepan-1-yl)propoxy)-N-(3-(5-chloro-1H-indol-3-yl)propyl)benzenesulfonamide]"
8,< 1,"O=S(=O)(NCCCc1c[nH]c2ccc(Cl)cc12)c1ccc(OCCCN2CCCNCC2)cc1 [Example 102, 4-(3-(1,4-diazepan-1-yl)propoxy)-N-(3-(5-chloro-1H-indol-3-yl)propyl)benzenesulfonamide]"
9,< 1,"CC1CN(CCCOc2ccc(S(=O)(=O)NCCCc3c[nH]c4ccc(Cl)cc34)cc2)CCN1 (centres unmarked) [Example 107, N-(3-(5-chloro-1H-indole-3-yl)propyl)-4-(3-(3-methylpiperazine-1-yl)propoxy)benzenesulfonamide]"
10,< 1,"CN1CCN(CC2(COc3ccc(S(=O)(=O)NCCCc4c[nH]c5ccc(Cl)cc45)cc3)CC2)CC1 [Example 116, N-(3-(5-chloro-1H-indole-3-yl)propyl)-4-((1-((4-methylpiperazine-1-yl)methyl)cyclopropyl)methoxy)benzenesulfonamide]"
11,1 to 10,"O=S(=O)(NCCCc1c[nH]c2ccc(Cl)cc12)c1ccc(Oc2cccc(Br)c2)cc1 [Example 119, 4-(3-bromophenoxy)-N-(3-(5-chloro-1H-indol-3-yl)propyl)benzenesulfonamide]"
12,1 to 10,"O=S(=O)(NCCCc1c[nH]c2ccc(Cl)cc12)c1ccc(Oc2cccc(N3CCCCC3)c2)cc1 [Example 120, N-(3-(5-chloro-1H-indol-3-yl)propyl)-4-(3-(piperidin-1-yl)phenoxy)benzenesulfonamide]"
13,1 to 10,"CN1CCCN(c2cccc(Oc3ccc(S(=O)(=O)NCCCc4c[nH]c5ccc(Cl)cc45)cc3)c2)CC1 [Example 122, N-(3-(5-chloro-1H-indol-3-yl)propyl)-4-(3-(4-methyl-1,4-diazepan-1-yl)phenoxy)benzenesulfonamide]"
14,1 to 10,"O=S(=O)(NCCCc1c[nH]c2ccc(Cl)cc12)c1ccc(Nc2cccc(N3CCOCC3)c2)cc1 [Example 126, N-(3-(5-chloro-1H-indol-3-yl)propyl)-4-((3-morpholinophenyl)amino)benzenesulfonamide]"
15,1 to 10,"O=S(=O)(NCCCc1c[nH]c2ccc(Cl)cc12)c1ccc(Oc2cccc(N3CCOCC3)c2)cc1 [Example 128, N-(3-(5-chloro-1H-indol-3-yl)propyl)-4-(3-morpholinophenoxy)benzenesulfonamide]"
16,1 to 10,"O=S(=O)(NCCCc1c[nH]c2ccc(Cl)cc12)c1ccc(Oc2cccc(N3CCCNCC3)c2)cc1 [Example 129, 4-(3-(1,4-diazepan-1-yl)phenoxy)-N-(3-(5-chloro-1H-indol-3-yl)propyl)benzenesulfonamide]"
